Results taken from PMC5725799, “Comparative binding properties of the tau PET tracers THK5117, THK5351, PBB3, and T807 in postmortem Alzheimer brains” (Alzheimer's Research & Therapy, 2017).
Values joined by “and” are separate entries in the source; they are usually repeats but may differ in a detail not shown here. Identical values can stand only once.

Key:
[1] = tested on: tau; test: ^3H-THK5351 competition autoradiography with unlabeled THK5351, T807 and deprenyl; format: binding, human; settings: cortical areas
Experimental: Six adjacent sections from AD1 (see Table 1) were used for competition autoradiography of unlabeled THK5351, T807, and deprenyl. After reaching room temperature, the frozen sections were preincubated for 10 minutes with PBS (pH 7.4) and then incubated for 1 h at room temperature with ^3H-THK5351 (1.5 nM) in addition to 10 μM unlabeled THK5351; 10 μM unlabeled deprenyl; 10 μM unlabeled T807; 10 μM unlabeled THK5351 and 10 μM unlabeled deprenyl; 10 μM unlabeled T807 and 10 μM unlabeled deprenyl. The sections were rinsed three times in cold buffer for 5 minutes, followed by a quick dip in cold distilled water. Nonspecific binding was determined using 10 μM unlabeled THK5351 or 10 μM unlabeled THK5117. […]
For all the autoradiography studies, the regions of interest were drawn manually on the autoradiogram using multigauge software and were used for the semiquantitative analyses. Photostimulated luminescence per square millimeter (PSL/mm^2) was transformed to picomoles per cubic millimeter using a transformation factor that took into account the resolution of the image, the pixel value for the concentration of ligand, and the thickness of the sections: (PSL/mm^2 value)/([pixel value per pmol] × [(resolution/1000)^2] × [cryosection thickness]/1000).

[2] = target: tau (Homo sapiens, UniProt P10636); test: Competition binding assay with ^3H-THK5351 in postmortem hippocampus brain homogenates; settings: vs ^3H-THK5351 1.5 nM, AD hippocampus homogenate; read-out: Ki2 (high-affinity site)
Experimental: Postmortem brain tissues from three patients with AD and three healthy control subjects were used for the in vitro binding assays. All the brain tissue, which came from the Netherlands Brain Bank, had been homogenized in PBS containing a protease/phosphatase inhibitor (see Table 1).
After 2-h incubation at room temperature, the binding assay was terminated by filtration through glass fiber filters presoaked for at least 3 h in 0.3% polyethylenimine. To do so, the filters were rinsed and filtered three times using cold binding buffer, and then the radiation on the filter was quantified using a Beckman Coulter scintillation counter. The data for the regional binding distribution studies were analyzed using Prism version 7.0 software for Mac (GraphPad Software Inc., La Jolla, CA, USA), and two-way analysis of variance with multiple comparisons was performed.

[3] = target: T1, monoamine oxidase B (MAO-B) (Homo sapiens, UniProt P27338); test: Competition binding with ^3H-deprenyl in hippocampus and putamen brain homogenates (off-target binding); settings: vs ^3H-deprenyl 10 nM, two AD cases
T1 construct: postmortem brain homogenates from the hippocampus and putamen (0.2 mg/ml tissue) of two patients with AD; tissue Netherlands Brain Bank; host or cells: postmortem human AD hippocampus and putamen homogenate
T1 sequence (P27338 1-520): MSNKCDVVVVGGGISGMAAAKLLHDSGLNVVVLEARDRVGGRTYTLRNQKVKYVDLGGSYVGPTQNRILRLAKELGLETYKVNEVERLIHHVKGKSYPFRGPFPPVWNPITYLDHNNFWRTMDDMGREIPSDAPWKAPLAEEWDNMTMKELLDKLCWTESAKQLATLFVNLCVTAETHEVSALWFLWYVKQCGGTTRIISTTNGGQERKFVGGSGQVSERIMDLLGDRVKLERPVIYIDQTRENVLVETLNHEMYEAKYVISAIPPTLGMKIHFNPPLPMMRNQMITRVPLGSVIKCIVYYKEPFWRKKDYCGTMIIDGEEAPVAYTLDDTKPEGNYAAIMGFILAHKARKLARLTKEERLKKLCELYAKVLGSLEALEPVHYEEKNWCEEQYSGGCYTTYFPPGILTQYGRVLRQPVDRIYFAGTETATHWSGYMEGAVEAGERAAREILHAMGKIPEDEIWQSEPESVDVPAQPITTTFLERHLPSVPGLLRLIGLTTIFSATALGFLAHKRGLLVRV
Experimental: Competition binding studies using postmortem brain homogenates from the hippocampus and putamen (0.2 mg/ml tissue) of two patients with AD were performed using ^3H-deprenyl (10 nM in Na-K phosphate buffer, pH 7.4) and increasing concentrations of unlabeled THK5117 (10^−14 to 10^−5 M) and T807 (10^−14 to 10^−5 M) to determine the off-target binding of the tau PET tracers. After 2-h incubation at room temperature, the binding assay was terminated by filtration through glass fiber filters presoaked for at least 3 h in 0.3% polyethylenimine. To do so, the filters were rinsed and filtered three times using cold binding buffer, and then the radiation on the filter was quantified using a Beckman Coulter scintillation counter. The data from all the binding studies were analyzed using Prism version 7.0 software.

tau (Homo sapiens, UniProt P10636), sequence (P10636 623-695 limits assumed): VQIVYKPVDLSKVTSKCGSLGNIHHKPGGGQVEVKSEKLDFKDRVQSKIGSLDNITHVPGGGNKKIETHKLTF

| ^3H-THK5351 binding displaced [1] | Ki [2] [nM] | Ki ([3]; hippocampus homogenate) | Ki ([3]; putamen homogenate) | SMILES |
| --- | --- | --- | --- | --- |
| 70–80% | 16 | – | – | CNc1ccc(-c2ccc3cc(OC[C@H](O)CF)ccc3n2)cn1 [THK5351] |
| 70–80% | 78 | 227 nM and > 200 nM | 135 nM and ~150 nM | Fc1ccc(-c2ccc3c(c2)[nH]c2ccncc23)cn1 [T807] |
